In patent US12378189B2, “Multi-aziridine compound” (priority 2020, dated 2025):

Key:
[1] = system: Rtkn-GFP reporter in mouse embryonic stem (mES) cells; test: ToxTracker genotoxicity assay, Rtkn-GFP reporter induction;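 note: GFP reporter signal quantified solely in intact single cells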
Procedure: (§1) The genotoxicity can be measured by the ToxTracker® assay (Toxys, Leiden, the Netherlands) as further described herein.
(§2) Genotoxicity of examples and comparatives was evaluated by the ToxTracker® assay (Toxys, Leiden, the Netherlands). The ToxTracker assay is a panel of several validated Green Fluorescent Protein (GFP)-based mouse embryonic stem (mES) reporter cell lines that can be used to identify the biological reactivity and potential carcinogenic properties of newly developed compounds in a single test. This methodology uses a two step-approach.
(§3) In the first step a dose range finding was performed using wild-type mES cells (strain B4418). 20 different concentrations for each compound was tested, starting at 10 mM in DMSO as highest concentration and nineteen consecutive 2-fold dilutions.
(§4) Genotoxicity was evaluated at 10, 25 and 50% cytotoxicity in absence and presence of rat S9 liver extract-based metabolizing systems (aroclor1254-induced rats, Moltox, Boone, NC, USA). The independent cell lines were seeded in 96-well cell culture plates, 24 h after seeding the cells in the 96-well plates, fresh ES cell medium containing the diluted test substance was added to the cells. For each tested compound, five concentrations are tested in 2-fold dilutions. The highest sample concentration will induce significant cytotoxicity (50-70%). In case of no or low cytotoxicity, 10 mM or the maximum soluble mixture concentration is used as maximum test concentration. Cytotoxicity is determined by cell count after 24 h exposure using a Guava easyCyte 10HT flow cytometer (Millipore).
(§5) GFP reporter induction is always compared to a vehicle control treatment.
(§6) All compounds were tested in at least three completely independent repeat experiments. Positive reference treatment with cisplatin (DNA damage) were included in all experiments. Metabolic was evaluated by addition of S9 liver extract. Cells are exposed to five concentrations of the test compound in the presence of S9 and required co-factors (RegenSysA+B, Moltox, Boone, NC, USA) for 3 h. After washing, cells are incubated for 24 h in fresh ES cell medium. Induction of the GFP reporters is determined after 24 h exposure using a Guava easyCyte 10HT flow cytometer (Millipore). Only GFP expression in intact single cells is determined. Mean GFP fluorescence and cell concentrations in each well is measured, which is used for cytotoxicity assessment. Data was analyzed using ToxPlot software (Toxys, Leiden, the Netherlands). The induction levels reported are at compound concentrations that induce 10%, 25% and 50% cytotoxicity after 3 h exposure in the presence of S9 rat liver extract and 24 h recovery or alternatively after 24 h exposure when not in the presence of S9 rat liver extract.

[2] = system: Bscl2-GFP and Rtkn-GFP reporters in mouse embryonic stem (mES) cells; test: ToxTracker genotoxicity assay, overall conclusion from Bscl2-GFP and Rtkn-GFP; conditions: positive: >= 2-fold induction at one of 10, 25, 50% cytotoxicity, with or without S9; not genotoxic: <= […] at all
Procedure: This methodology uses a two step-approach.
Metabolic was evaluated by addition of S9 liver extract. […] Only GFP expression in intact single cells is determined.

[3] = system: Bscl2-GFP reporter in mouse embryonic stem (mES) cells; test: ToxTracker genotoxicity assay, Bscl2-GFP reporter induction
Procedure: as §1, §2, §3, §4, §5, §6

[4] = with S9 rat liver extract, concentration inducing 10% cytotoxicity, 3 h exposure, 24 h recovery
[5] = with S9 rat liver extract, concentration inducing 25% cytotoxicity, 3 h exposure, 24 h recovery
[6] = with S9 rat liver extract, concentration inducing 50% cytotoxicity, 3 h exposure, 24 h recovery
[7] = without S9 rat liver extract, concentration inducing 10% cytotoxicity, 24 h exposure
[8] = without S9 rat liver extract, concentration inducing 25% cytotoxicity, 24 h exposure
[9] = without S9 rat liver extract, concentration inducing 50% cytotoxicity, 24 h exposure

CCCCOCC(CN1CC1)OC(=O)NC1CCC(CC2CCC(NC(=O)OC(COCCCC)CN3CC3)CC2)CC1 (stereo not shown) [Comp. Ex 4]
Rtkn induction level [1, 4]: 1.1 fold
Rtkn induction level [1, 5]: 1.6 fold
Rtkn induction level [1, 6]: 1.9 fold
Rtkn induction level [1, 7]: 1.2 fold
Rtkn induction level [1, 8]: 1.5 fold
Rtkn induction level [1, 9]: 2.1 fold
Genotoxicity test result (conclusion) [2]: genotoxic

CCCCOCC(CN1CC1)OC(=O)NCCCCCCn1c(=O)n(CCCCCCNC(=O)OC(COCCCC)CN2CC2)c(=O)n(CCCCCCNC(=O)OC(COCCCC)CN2CC2)c1=O (stereo not shown) [Ex. 1]
Rtkn induction level [1, 4]: 1.0 fold
Rtkn induction level [1, 5]: 1.1 fold
Rtkn induction level [1, 6]: 1.1 fold
Rtkn induction level [1, 7]: 1.0 fold
Rtkn induction level [1, 8]: 1.0 fold
Rtkn induction level [1, 9]: 0.9 fold
Genotoxicity test result (conclusion) [2]: non-genotoxic

CC(CN1CC1)OC(=O)NCCCCCCn1c(=O)n(CCCCCCNC(=O)OC(C)CN2CC2)c(=O)n(CCCCCCNC(=O)OC(C)CN2CC2)c1=O (stereo not shown) [Comp. Ex. 3]
Rtkn induction level [1, 4]: 1.3 fold
Rtkn induction level [1, 5]: 2.1 fold
Rtkn induction level [1, 6]: 2.2 fold
Rtkn induction level [1, 7]: 1.3 fold
Rtkn induction level [1, 8]: 1.8 fold
Rtkn induction level [1, 9]: 1.9 fold
Genotoxicity test result (conclusion) [2]: genotoxic

O=C(CCN1CC1)OCC(CO)(COC(=O)CCN1CC1)COC(=O)CCN1CC1 [Comp Ex 5, pentaerythritol tris(3-(1-aziridinyl)propionate)]
Genotoxicity test result (conclusion) [2]: genotoxic

CCCCOCC(CN1CC1)OC(=O)NCCCCCC/N=c1\oc(=O)n(CCCCCCNC(=O)OC(COCCCC)CN2CC2)c(=O)n1CCCCCCNC(=O)OC(COCCCC)CN1CC1 (stereo not shown) [Ex. 5]
Rtkn induction level [1, 4]: 1.0 fold
Rtkn induction level [1, 5]: 0.9 fold
Rtkn induction level [1, 6]: 1.0 fold
Rtkn induction level [1, 7]: 1.0 fold
Rtkn induction level [1, 8]: 1.1 fold
Rtkn induction level [1, 9]: 1.0 fold
Genotoxicity test result (conclusion) [2]: non-genotoxic

CCCCCCCCCC(=O)OCC(CN1CC1)OC(=O)NCCCCCCn1c(=O)n(CCCCCCNC(=O)OC(COC(=O)CCCCCCCCC)CN2CC2)c(=O)n(CCCCCCNC(=O)OC(COC(=O)CCCCCCCCC)CN2CC2)c1=O (stereo not shown) [Ex. 3]
Rtkn induction level [1, 4]: 1.3 fold
Rtkn induction level [1, 5]: 1.5 fold
Rtkn induction level [1, 6]: 1.5 fold
Rtkn induction level [1, 7]: 1.3 fold
Rtkn induction level [1, 8]: 1.5 fold
Rtkn induction level [1, 9]: 1.5 fold
Genotoxicity test result (conclusion) [2]: non-genotoxic
Bscl 2 induction level [3, 4]: 1.1 fold
Bscl 2 induction level [3, 5]: 1.2 fold
Bscl 2 induction level [3, 6]: 1.2 fold
Bscl 2 induction level [3, 7]: 1.1 fold
Bscl 2 induction level [3, 8]: 1.2 fold
Bscl 2 induction level [3, 9]: 1.4 fold

O=C(NCCCCCCn1c(=O)n(CCCCCCNC(=O)OCCN2CC2)c(=O)n(CCCCCCNC(=O)OCCN2CC2)c1=O)OCCN1CC1 [Comp. Ex. 2]
Rtkn induction level [1, 4]: 2.0 fold
Rtkn induction level [1, 5]: 3.4 fold
Rtkn induction level [1, 6]: 3.0 fold
Rtkn induction level [1, 7]: 1.7 fold
Rtkn induction level [1, 8]: 2.4 fold
Rtkn induction level [1, 9]: 2.8 fold
Genotoxicity test result (conclusion) [2]: genotoxic
